Measured values from ChEMBL document CHEMBL3046647, “Khayasin and 2S-methylbutanoylproceranolide: Promising candidate insecticides for the control of the coconut leaf beetle, Brontispa longissima” (2011).
≈ marks a conversion by molar mass, not a printed value.

Legend:
Type in all cases: functional
Brontispa longissima [1] = assay: Insecticidal activity against Brontispa longissima fifth-instar larvae fed on compound pre-treated Cocos nucifera L. leaves assessed as insect mortality at 50 ug/ml measured 72 hr after compound treatment; details: in Cocos nucifera
Brontispa longissima [2] = assay: Insecticidal activity against Brontispa longissima fifth-instar larvae fed on compound pre-treated Cocos nucifera L. leaves assessed as insect mortality at 50 ug/ml measured 12 hr after compound treatment; details: in Cocos nucifera
Brontispa longissima [3] = assay: Insecticidal activity against Brontispa longissima third-instar larvae fed on compound pre-treated Cocos nucifera L. leaves assessed as insect mortality at 50 ug/ml measured 48 hr after compound treatment; details: in Cocos nucifera
Spodoptera litura [4] = assay: Insecticidal activity against Spodoptera litura third-instar larvae fed on compound pre-treated Ricinus communis L. leaves assessed as insect mortality at 0.5 mg/ml measured 12 days after compound treatment; details: in Ricinus communis
Brontispa longissima [5] = assay: Insecticidal activity against Brontispa longissima second-instar larvae fed on compound pre-treated Cocos nucifera L. leaves assessed as insect mortality at 50 ug/ml measured 48 hr after compound treatment; details: in Cocos nucifera
Spodoptera litura [6] = assay: Antifeedant activity against Spodoptera litura third-instar larvae fed on compound pre-treated castor-oil plant leaves assessed as antifeedant rate at 1 mg/ml after 24 hr
Spodoptera litura [7] = assay: Antifeedant activity against Spodoptera litura third-instar larvae fed on compound pre-treated castor-oil plant leaves assessed as antifeedant rate at 0.5 mg/ml after 24 hr
Brontispa longissima [8] = assay: Insecticidal activity against Brontispa longissima fifth-instar larvae fed on compound pre-treated Cocos nucifera L. leaves assessed as insect mortality measured 24 hr after compound treatment; details: in Cocos nucifera
Brontispa longissima [9] = assay: Insecticidal activity against Brontispa longissima third-instar larvae fed on compound pre-treated Cocos nucifera L. leaves assessed as insect mortality at 50 ug/ml measured 24 hr after compound treatment; details: in Cocos nucifera
Spodoptera litura [10] = assay: Antifeedant activity against Spodoptera litura third-instar larvae fed on compound pre-treated castor-oil plant leaves assessed as antifeedant rate at 1 mg/ml after 48 hr
Brontispa longissima [11] = assay: Insecticidal activity against Brontispa longissima fifth-instar larvae fed on compound pre-treated Cocos nucifera L. leaves assessed as insect mortality at 25 ug/ml measured 24 hr after compound treatment; details: in Cocos nucifera
Brontispa longissima [12] = assay: Insecticidal activity against Brontispa longissima second-instar larvae fed on compound pre-treated Cocos nucifera L. leaves assessed as insect mortality at 50 ug/ml measured 72 hr after compound treatment; details: in Cocos nucifera
Brontispa longissima [13] = assay: Insecticidal activity against Brontispa longissima fifth-instar larvae fed on compound pre-treated Cocos nucifera L. leaves assessed as insect mortality at 50 ug/ml measured 48 hr after compound treatment; details: in Cocos nucifera
Brontispa longissima [14] = assay: Insecticidal activity against Brontispa longissima second-instar larvae fed on compound pre-treated Cocos nucifera L. leaves assessed as insect mortality at 50 ug/ml measured 24 hr after compound treatment; details: in Cocos nucifera
Spodoptera litura [15] = assay: Antifeedant activity against Spodoptera litura third-instar larvae fed on compound pre-treated castor-oil plant leaves assessed as antifeedant rate at 0.5 mg/ml after 48 hr
Brontispa longissima [16] = assay: Insecticidal activity against Brontispa longissima fourth-instar larvae fed on compound pre-treated Cocos nucifera L. leaves assessed as insect mortality at 50 ug/ml measured 72 hr after compound treatment; details: in Cocos nucifera
Brontispa longissima [17] = assay: Insecticidal activity against Brontispa longissima third-instar larvae fed on compound pre-treated Cocos nucifera L. leaves assessed as insect mortality at 50 ug/ml measured 12 hr after compound treatment; details: in Cocos nucifera
Spodoptera litura [18] = assay: Insecticidal activity against Spodoptera litura third-instar larvae fed on compound pre-treated Ricinus communis L. leaves assessed as insect mortality at 1 mg/ml measured 12 days after compound treatment; details: in Ricinus communis
Brontispa longissima [19] = assay: Insecticidal activity against Brontispa longissima fourth-instar larvae fed on compound pre-treated Cocos nucifera L. leaves assessed as insect mortality at 50 ug/ml measured 48 hr after compound treatment; details: in Cocos nucifera
Brontispa longissima [20] = assay: Insecticidal activity against Brontispa longissima fifth-instar larvae fed on compound pre-treated Cocos nucifera L. leaves assessed as insect mortality at 25 ug/ml measured 72 hr after compound treatment; details: in Cocos nucifera
Brontispa longissima [21] = assay: Insecticidal activity against Brontispa longissima fifth-instar larvae fed on compound pre-treated Cocos nucifera L. leaves assessed as insect mortality at 25 ug/ml measured 48 hr after compound treatment; details: in Cocos nucifera
Brontispa longissima [22] = assay: Insecticidal activity against Brontispa longissima fifth-instar larvae fed on compound pre-treated Cocos nucifera L. leaves assessed as insect mortality at 50 ug/ml measured 24 hr after compound treatment; details: in Cocos nucifera
Brontispa longissima [23] = assay: Insecticidal activity against Brontispa longissima fourth-instar larvae fed on compound pre-treated Cocos nucifera L. leaves assessed as insect mortality at 50 ug/ml measured 24 hr after compound treatment; details: in Cocos nucifera
Brontispa longissima [24] = assay: Insecticidal activity against Brontispa longissima third-instar larvae fed on compound pre-treated Cocos nucifera L. leaves assessed as insect mortality at 50 ug/ml measured 72 hr after compound treatment; details: in Cocos nucifera
Brontispa longissima [25] = assay: Insecticidal activity against Brontispa longissima second-instar larvae fed on compound pre-treated Cocos nucifera L. leaves assessed as insect mortality at 50 ug/ml measured 12 hr after compound treatment; details: in Cocos nucifera
Brontispa longissima [26] = assay: Insecticidal activity against Brontispa longissima fifth-instar larvae fed on compound pre-treated Cocos nucifera L. leaves assessed as insect mortality at 25 ug/ml measured 12 hr after compound treatment; details: in Cocos nucifera
Brontispa longissima [27] = assay: Insecticidal activity against Brontispa longissima fifth-instar larvae fed on compound pre-treated Cocos nucifera L. leaves assessed as insect mortality measured 48 hr after compound treatment; details: in Cocos nucifera
Brontispa longissima [28] = assay: Insecticidal activity against Brontispa longissima fourth-instar larvae fed on compound pre-treated Cocos nucifera L. leaves assessed as insect mortality at 50 ug/ml measured 12 hr after compound treatment; details: in Cocos nucifera
Brontispa longissima [29] = assay: Insecticidal activity against Brontispa longissima fifth-instar larvae fed on compound pre-treated Cocos nucifera L. leaves assessed as insect mortality at 10 ug/ml measured 48 hr after compound treatment; details: in Cocos nucifera
Brontispa longissima [30] = assay: Insecticidal activity against Brontispa longissima fifth-instar larvae fed on compound pre-treated Cocos nucifera L. leaves assessed as insect mortality at 10 ug/ml measured 24 hr after compound treatment; details: in Cocos nucifera
Brontispa longissima [31] = assay: Insecticidal activity against Brontispa longissima fifth-instar larvae fed on compound pre-treated Cocos nucifera L. leaves assessed as insect mortality at 10 ug/ml measured 72 hr after compound treatment; details: in Cocos nucifera
Brontispa longissima [32] = assay: Insecticidal activity against Brontispa longissima fifth-instar larvae fed on compound pre-treated Cocos nucifera L. leaves assessed as insect mortality at 10 ug/ml measured 12 hr after compound treatment; details: in Cocos nucifera
Brontispa longissima [33] = assay: Insecticidal activity against Brontispa longissima fifth-instar larvae fed on compound pre-treated Cocos nucifera L. leaves assessed as insect mortality at 1 ug/ml measured 24 hr after compound treatment; details: in Cocos nucifera
Brontispa longissima [34] = assay: Insecticidal activity against Brontispa longissima fifth-instar larvae fed on compound pre-treated Cocos nucifera L. leaves assessed as insect mortality at 1 ug/ml measured 12 hr after compound treatment; details: in Cocos nucifera
Brontispa longissima [35] = assay: Insecticidal activity against Brontispa longissima fifth-instar larvae fed on compound pre-treated Cocos nucifera L. leaves assessed as insect mortality at 1 ug/ml measured 72 hr after compound treatment; details: in Cocos nucifera
Brontispa longissima [36] = assay: Insecticidal activity against Brontispa longissima fifth-instar larvae fed on compound pre-treated Cocos nucifera L. leaves assessed as insect mortality at 1 ug/ml measured 48 hr after compound treatment; details: in Cocos nucifera
Brontispa longissima [37] = assay: Insecticidal activity against Brontispa longissima fifth-instar larvae fed on compound pre-treated Cocos nucifera L. leaves assessed as insect mortality at 5 ug/ml measured 24 hr after compound treatment; details: in Cocos nucifera
Brontispa longissima [38] = assay: Insecticidal activity against Brontispa longissima fifth-instar larvae fed on compound pre-treated Cocos nucifera L. leaves assessed as insect mortality at 5 ug/ml measured 72 hr after compound treatment; details: in Cocos nucifera
Brontispa longissima [39] = assay: Insecticidal activity against Brontispa longissima fifth-instar larvae fed on compound pre-treated Cocos nucifera L. leaves assessed as insect mortality at 5 ug/ml measured 48 hr after compound treatment; details: in Cocos nucifera
Brontispa longissima [40] = assay: Insecticidal activity against Brontispa longissima fifth-instar larvae fed on compound pre-treated Cocos nucifera L. leaves assessed as insect mortality at 5 ug/ml measured 12 hr after compound treatment; details: in Cocos nucifera

| Compound | mortality at 50 µg/mL (Brontispa longissima [1]) [%] | mortality at 50 µg/mL (Brontispa longissima [2]) [%] | mortality at 50 µg/mL (Brontispa longissima [3]) [%] | mortality at 50 µg/mL (Brontispa longissima [5]) [%] | Activity (Spodoptera litura [6]) [%] | LC50 (Brontispa longissima [8]) [µg/mL] | mortality at 50 µg/mL (Brontispa longissima [9]) [%] | Activity (Spodoptera litura [10]) [%] | mortality at 50 µg/mL (Brontispa longissima [12]) [%] | mortality at 50 µg/mL (Brontispa longissima [13]) [%] | mortality at 50 µg/mL (Brontispa longissima [14]) [%] | mortality at 50 µg/mL (Brontispa longissima [16]) [%] | mortality at 50 µg/mL (Brontispa longissima [17]) [%] | mortality at 1000 µg/mL (Spodoptera litura [18]) [%] | mortality at 50 µg/mL (Brontispa longissima [19]) [%] | mortality at 50 µg/mL (Brontispa longissima [22]) [%] | mortality at 50 µg/mL (Brontispa longissima [23]) [%] | mortality at 50 µg/mL (Brontispa longissima [24]) [%] | mortality at 50 µg/mL (Brontispa longissima [25]) [%] | LC50 (Brontispa longissima [27]) [µg/mL] | further results |
| --- | --- | --- | --- | --- | --- | --- | --- | --- | --- | --- | --- | --- | --- | --- | --- | --- | --- | --- | --- | --- | --- |
| CC[C@H](C)C(=O)O[C@@H]1[C@H]2CC3=C4CC(=O)O[C@@H](c5ccoc5)[C@]4(C)CC[C@@H]3[C@@](C)(C2=O)[C@@H](CC(=O)OC)C1(C)C [2'S-METHYLBUTANOYLPROCERANOLIDE] | 100 | 96.7 | 7.14 | 16.7 | 48.4 | 10.6 (≈ 19.1 µM) | 7.14 | 53 | 23.3 | 96.7 | 6.67 | 0 | 3.57 | 50 | 0 | 96.7 | 0 | 14.3 | 3.33 | 4.03 (≈ 7.27 µM) | mortality at 500 µg/mL (Spodoptera litura [4]): 24.1%; Activity (Spodoptera litura [7]): 33.9%; mortality at 25 µg/mL (Brontispa longissima [11]): 80%; Activity (Spodoptera litura [15]): 41.7%; mortality at 25 µg/mL (Brontispa longissima [20]): 86.7%; mortality at 25 µg/mL (Brontispa longissima [21]): 83.3%; mortality at 25 µg/mL (Brontispa longissima [26]): 76.7%; mortality at 50 µg/mL (Brontispa longissima [28]): 0% |
| C/C=C(\C)C(=O)O[C@H]1C[C@@H](OC(C)=O)[C@@]2(C(=O)OC)CO[C@H]3[C@@H](O)[C@@](C)([C@]45O[C@@]4(C)[C@@H]4C[C@H]5O[C@@H]5OC=C[C@@]54O)[C@H]4[C@]1(CO[C@]4(O)C(=O)OC)[C@@H]32 [AZADIRACHTIN A] | 10 | 3.33 | – | – | – | – | – | – | – | 10 | – | – | – | – | – | 10 | – | – | – | – | mortality at 10 µg/mL (Brontispa longissima [29]): 56.7%; mortality at 10 µg/mL (Brontispa longissima [30]): 46.7%; mortality at 10 µg/mL (Brontispa longissima [31]): 63.3%; mortality at 10 µg/mL (Brontispa longissima [32]): 20% |
| CCC(C)C(=O)OC1[C@@H]2CC3=C4CC(=O)O[C@@H](c5ccoc5)[C@]4(C)CCC3[C@@](C)(C2=O)[C@@H](CC(=O)OC)C1(C)C (some centres not stated) [KHAYASIN] | 100 | 96.7 | 100 | 100 | 48.4 | 7.28 (≈ 13.1 µM) | 100 | 53 | 100 | 100 | 100 | 100 | 100 | 50 | 100 | 100 | 100 | 100 | 100 | 3.39 (≈ 6.11 µM) | mortality at 10 µg/mL (Brontispa longissima [29]): 79.3%; mortality at 500 µg/mL (Spodoptera litura [4]): 24.1%; mortality at 10 µg/mL (Brontispa longissima [30]): 79.3%; mortality at 1 µg/mL (Brontispa longissima [33]): 20%; Activity (Spodoptera litura [7]): 33.9%; mortality at 10 µg/mL (Brontispa longissima [31]): 86.3%; mortality at 1 µg/mL (Brontispa longissima [34]): 23.3%; mortality at 10 µg/mL (Brontispa longissima [32]): 71.8%; Activity (Spodoptera litura [15]): 41.7%; mortality at 1 µg/mL (Brontispa longissima [35]): 26.7%; mortality at 1 µg/mL (Brontispa longissima [36]): 23.3%; mortality at 50 µg/mL (Brontispa longissima [28]): 100% |
| C=C(C)[C@H]1Cc2c(ccc3c2O[C@@H]2COc4cc(OC)c(OC)cc4[C@@H]2C3=O)O1 [ROTENONE] | 100 | 86.7 | – | – | – | 5.32 (≈ 13.5 µM) | – | – | – | 96.7 | – | – | – | – | – | 86.7 | – | – | – | 1.61 (≈ 4.08 µM) | mortality at 10 µg/mL (Brontispa longissima [29]): 90%; mortality at 5 µg/mL (Brontispa longissima [37]): 66.7%; mortality at 10 µg/mL (Brontispa longissima [30]): 90%; mortality at 5 µg/mL (Brontispa longissima [38]): 76.7%; mortality at 10 µg/mL (Brontispa longissima [31]): 90%; mortality at 5 µg/mL (Brontispa longissima [39]): 73.3%; mortality at 10 µg/mL (Brontispa longissima [32]): 80%; mortality at 5 µg/mL (Brontispa longissima [40]): 60% |
| CC(=O)O[C@@H]1C[C@H](O)[C@@]23CO[C@@H](O)[C@]1(C)[C@@H]2C[C@@H](O)[C@]1(C)[C@@H]3C(=O)[C@H](OC(C)=O)[C@@]2(C)[C@H](c3ccoc3)C[C@H]3O[C@]321 [TOOSENDANIN] | – | – | 73.3 | 100 | 87.1 | – | 63.3 | 90.6 | 100 | – | 100 | 73.3 | 53.3 | 100 | 66.7 | – | 60 | 83.3 | 96.7 | – | mortality at 50 µg/mL (Brontispa longissima [28]): 53.3% |
